From patent publication US8630703B2, “Treatment utilizing hydrophobic weak bases chemotherapeutic agents and illumination” (Technion Research & Development Foundation Limited, priority 2011, dated 2014)
Like-named read-outs stand apart in the source and are kept apart here.

What was measured:
2008 cells = assay: XTT cytotoxicity assay with and without illumination
Description: (§1) Parental cells and their MDR (multi-drug resistant) sub-lines were seeded in 96-well plates (2×10^4 cells/well in 90 μl growth medium/well). […] Following incubation for 2 hours, the drug-containing medium was replaced by drug-free medium. The cells were then placed on an illuminator plate (Model 460, thin line series, S&S X-Ray Products Inc., Brooklyn, N.Y.) for 1 hour, thereby achieving a light dose of 5 J/cm^2 white light. After illumination, plates were further incubated for an additional 24 hours.
(§2) Cell viability was determined using an XTT (2,3-bis-(2-methoxy-4-nitro-5-sulfophenyl)-2H-tetrazolium-5-carboxanilide) Cell Proliferation Kit (Biological Industries). […] Results are presented as mean values of at least three independent experiments.

SW1573 cells = assay: as above
Description: as §1, §2

[1] = system: human umbilical vein endothelial cells (HUVEC); assay: Fluorescence microscopy of endothelial cells; type: cell-based; conditions: 1 μM
Description: Human umbilical vein endothelial cells (HUVEC) were isolated by perfusion of umbilical veins (Department of Obstetrics and Gynaecology, VU University Medical Center) with trypsin. Cells were routinely cultured in RPMI-1640 medium (Life Technologies, Breda, The Netherlands) supplemented with 10% heat-inactivated human serum, 10% heat-inactivated FCS, 2 mM L-glutamine (Life Technologies, Netherlands), […] streptomycin and 50 U/ml penicillin (ICN Biomedicals) in a 0.2% gelatin coated 75 cm^2 tissue culture flask at 37° C. in an atmosphere with 5% CO2. HUVEC used for experiments were cultured without addition of extra growth factors and used for experiments between passage 2 and 4.
Freshly-isolated human umbilical vein endothelial cells (HUVEC), RF24 immortalized HUVEC cells, and human dermis derived endothelial cells (HMEC) were obtained and grown in vitro as described in the Materials and Methods section hereinabove. The cells were then seeded at 10^4 cells/well in a 24-well tissue culture plate. Twenty four hours after seeding, the cells were incubated for 1 hour with 10 or 1 μM of either C-1375, C-1379 or sunitinib. After this incubation, the cells in the 24-well plates were evaluated by fluorescence microscopy. […]

A549 cells = assay: XTT cytotoxicity assay with and without illumination
Description: as §1, §2

SW1573/2R160 cells = assay: as above
Description: Cells were grown in drug-free conditions for one week before any analysis.
as §1, §2

[2] = Absorption, emission and excitation spectra; type: physicochemical; conditions: aqueous 0.9% NaCl
Description: Stock solutions containing sunitinib or the imidazoacridinones (IAs) C-1375 and C-1379 in 100% dimethyl sulfoxide were diluted with aqueous 0.9% NaCl solution under continuous stirring. Absorption spectra were recorded with a two-beam Cary 500 UV-VIS-NIR spectrophotometer (Varian) in 1 cm long Suprasil® quartz cuvettes (Hellma), at an average scan speed of 600 nm/minute, at 20° C. The steady state emission and excitation spectra were recorded with an LS 50B luminescence spectrometer (Perkin-Elmer).

2008/MRP1 cells = assay: XTT cytotoxicity assay with and without illumination
Description: as §1, §2

[3] = system: chicken chorioallantoic membrane (CAM) vasculature; assay: Chorioallantoic membrane (CAM) model of photodynamic therapy; type: in vivo; conditions: 100 μg/embryo i.v.; 420 nm, 20 J/cm^2, 1 minute after injection; 24 hours after treatment
Description: Fertilized chicken eggs (Animalco AG) were labeled and transferred into a hatching incubator with a relative air humidity of 65% and a temperature of 37° C. The incubator was equipped with an automatic fan (Savimat). On embryonic development day (EDD) 3, a hole of approximately 3 mm in diameter was opened in the eggshell above the air pouch of the egg and covered with Parafilm® wrapping film (Pechiney) to prevent dehydration and possible infections. The eggs were then returned to the incubator in a static position until use. On EDD 11, the hole in the shell was extended to a diameter of approximately 3 cm in order to provide better access to the chorioallantoic membrane (CAM) during experiments.
Eggs were placed under an Eclipse 600 FN epi-fluorescence microscope equipped with a Plan Apo 4/0.2, working distance 20 objective (Nikon). Microscopic observation and illumination of a region of the CAM was performed as described previously [Lim et al., Photochem Photobiol 2010, 86:397-402; Lim et al., J Med Chem 2010, 53:2865-2874; Nowak-Sliwinska et al., Angiogenesis 2010, 13:281-292]. Illumination was provided by a 100 W high pressure Hg-arc lamp. Light doses were adjusted with neutral density filters and measured with a calibrated Field-Master GS power meter (Coherent Inc.). Fluorescence images were acquired with an F-view II 12-bit monochrome Peltier-cooled digital CCD camera driven with analySIS DOCU software (Soft Imaging System GmbH).
For excitation and detection of imidazoacridinones (IAs) or sunitinib, the microscope was equipped with a filter set (Nikon) characterized by excitation wavelengths of 420±20 nm and emission wavelengths of >470 nm,
After the treatment the eggs were numbered, covered and returned to the incubator. Each treatment group included 5 eggs.
Chorioallantoic membranes (CAMs) were intravenously injecting chorioallantoic membranes with 20 μl of a solution of FITC-dextran (20 kDa, 25 mg/ml). Fluorescence angiography was then performed using light from an Hg-arc lamp and light filters (Nikon) which provided excitation wavelengths of 470±20 nm and emission wavelengths of >520 nm for observing the fluorescence. In order to increase the quality of the recorded angiographs, a light absorber, in the form of India ink, was injected (30 μl) into the extra-embryonic cavity. The purpose of this second injection was to decrease the influence of the CAM auto-fluorescence background, which changes rapidly with time due to the embryo's movement. The India ink was filtered shortly before injection, using a sterile cellulose acetate membrane with 0.2 μm pores (Renner GmbH).
Photodynamic therapy (PDT) was performed at embryo development day (EDD) 11, at which stage the CAM is fully developed and contains a vessel network with a regular capillary plexus. The imidazoacridinones were intravenously injected into the main vessel of the CAM through a 33-gauge needle fitted to a 100 μl syringe (Hamilton), at a concentration of 1 mg/ml and a volume of 100 μl, which corresponds to a dose of 100 μg, or approximately 10 mg/kg embryo body weight.
One minute after injection, a region of the CAM which contained vessels of diameters in a range of 5 to 70 μm was illuminated (420±20 nm) at a light dose of 20 J/cm^2 and an irradiance of […]. […]
The illuminated area was 0.02 cm^2, as delimited by an optical diaphragm. The fluorescence of sunitinib was visible in the vasculature of the CAMs prior to PDT.

A549/K1.5 cells = assay: XTT cytotoxicity assay with and without illumination; type: cell-based, Human; conditions: A549/K1.5
Description: Human non-small cell lung cancer A549 cells and their ABCG2-overexpressing MDR (multi-drug resistant) A549/K1.5 sub-line; ovarian carcinoma cell line 2008 and its stable MRP1-transfectant 2008/MRP1; and human non-small lung cancer cell line SW1573 and its ABCB1-overexpressing subline SW1573/2R160) were maintained in RPMI-1640 medium supplemented with 10% fetal bovine serum, 2 mM glutamine, 100 μg/ml penicillin and streptomycin (Biological Industries, Beth-Haemek, Israel) in a humid atmosphere containing 5% CO2 at 37° C.
as §1
(§3) Cell viability was determined using an XTT (2,3-bis-(2-methoxy-4-nitro-5-sulfophenyl)-2H-tetrazolium-5-carboxanilide) Cell Proliferation Kit (Biological Industries). The drug concentrations required to inhibit cell growth by 50% (i.e., IC50 values) were determined from the cell survival curves in the absence and in the presence of illumination. Results are presented as mean values of at least three independent experiments.

[4] = system: human dermis derived endothelial cells (HMEC); assay: Fluorescence microscopy of endothelial cells; type: cell-based; conditions: 1 μM, blue light (420 nm)
Description: Endothelial cell lines RF24 and HMEC, were provided by Dr. H. Pannekoek (CLB, Amsterdam, Netherlands) and Dr. D van der Schaft (Maastricht University), respectively.
Freshly-isolated human umbilical vein endothelial cells (HUVEC), RF24 immortalized HUVEC cells, and human dermis derived endothelial cells (HMEC) were obtained and grown in vitro as described in the Materials and Methods section hereinabove. The cells were then seeded at 10^4 cells/well in a 24-well tissue culture plate. Twenty four hours after seeding, the cells were incubated for 1 hour with 10 or 1 μM of either C-1375, C-1379 or sunitinib. After this incubation, the cells in the 24-well plates were evaluated by fluorescence microscopy. For excitation and detection of imidazoacridinones (IAs) or sunitinib, the microscope was equipped with a filter set (Nikon) characterized by excitation wavelengths of 420±20 nm and emission wavelengths of >470 nm.

[5] = system: MDR SW/2R160 and 2008/MRP1 cells; assay: XTT cytotoxicity, result stated jointly for MDR cells; type: cell-based
Description: as §1, §3

For `COc1ccc2c(c1)c(=O)c1c(NCCCN(C)C)ccc3nc(C)n2c31` [C-1375], the Fold sensitization (2008 cells; control vs illumination) was 36, the “C-1375 LD50 Illumination” value (2008 cells; illumination) was 90 ± 9 nM and the “Survival at 1000 nM Illumination” value (2008 cells; illumination) was 11 ± 4%. The “C-1375 LD50 Control” value (2008 cells; no illumination) was 3.28 ± 0.345 µM, the “Survival at 1000 nM Control” value (2008 cells; no illumination) was 72 ± 0.8% and the Fold sensitization (SW1573 cells; control vs illumination) was 24. For the same compound, the “C-1375 LD50 Illumination” value (SW1573 cells; illumination) was 233 ± 5 nM, the “Survival at 1000 nM Illumination” value (SW1573 cells; illumination) was 11 ± 2% and the “C-1375 LD50 Control” value (SW1573 cells; no illumination) was 5.535 ± 0.596 µM. For the same compound, the “Survival at 1000 nM Control” value (SW1573 cells; no illumination) was 68 ± 6%, the photodestruction of lysosomes ([1]; approximately 2 minutes of illumination) was “most of the lysosomes had disappeared” and the photodestruction of lysosomes ([1]; illumination 1 minute (420 nm)) was “many lysosomes were destroyed”. For the same compound, the Fold sensitization (A549 cells; control vs illumination) was 14, the “Survival at 3000 nM Control” value (A549 cells; no illumination) was 50 ± 3% and the “LD50 Control” value (A549 cells; no illumination, 2 h drug, XTT 24 h later) was 3.054 ± 0.26 µM. The “LD50 Illumination” value (A549 cells; white light 1 hour (5 J/cm^2)) was 212 ± 29 nM, the “Survival at 3000 nM Illumination” value (A549 cells; white light illumination) was 3 ± 2% and the Fold sensitization (SW1573/2R160 cells; control vs illumination) was 13. For the same compound, the “C-1375 LD50 Illumination” value (SW1573/2R160 cells; illumination) was 330 ± 56 nM, the “Survival at 1000 nM Illumination” value (SW1573/2R160 cells; illumination) was 24 ± 4% and the “C-1375 LD50 Control” value (SW1573/2R160 cells; no illumination) was 4.384 ± 0.125 µM. For the same compound, the “Survival at 1000 nM Control” value (SW1573/2R160 cells; no illumination) was 74 ± 3%, the Peak absorption [2] was 444 nm and the Peak emission [2] was 553 nm. The Peak excitation [2] was 449 nm, the Fold sensitization (2008/MRP1 cells; control vs illumination) was 51 and the “C-1375 LD50 Illumination” value (2008/MRP1 cells; illumination) was 101 ± 0.1 nM. For the same compound, the “Survival at 1000 nM Illumination” value (2008/MRP1 cells; illumination) was 13 ± 3%, the “C-1375 LD50 Control” value (2008/MRP1 cells; no illumination) was 5.115 ± 0.889 µM and the “Survival at 1000 nM Control” value (2008/MRP1 cells; no illumination) was 80 ± 2%. For the same compound, the “vascular effect in illuminated area” value [3] was “vaso-occlusion within the illuminated area”, the Fold sensitization (A549/K1.5 cells; control vs illumination) was 10 and the “LD50 Control” value (A549/K1.5 cells; no illumination) was 5.264 ± 0.877 µM. The “Survival at 3000 nM Control” value (A549/K1.5 cells; no illumination) was 70 ± 5%, the “LD50 Illumination” value (A549/K1.5 cells; white light 1 hour (5 J/cm^2)) was 541 ± 56 nM and the “Survival at 3000 nM Illumination” value (A549/K1.5 cells; white light illumination) was 3 ± 0.6%. For the same compound, the photodestruction of lysosomes [4] was “lysosome destruction and accumulation of C-1375 in the nuclei also occurred”, the IC50 ([5]; illumination, read-out: IC50 with illumination) was 90 to 330 nM and the IC50 ([5]; no illumination, read-out: IC50 in the absence of illumination) was 3300 to 5500 nM.
